Data: patent US20060287233A1, “Method of use of antagonists of zonulin to prevent the loss of or to regenerate pancreatic cells” (priority 2005, published 2006)
“Also recorded” adds a separate entry of the source. Ends that are not written are not given here.

How the values were obtained:
rabbit ileum = assay: Tissue resistance (Rt) of rabbit ileum mounted in Ussing chambers
Experimental: Next, rabbit ileum mounted in Ussing chambers as described below, were exposed to 100 μg of FZI/O (SEQ ID NO:15), 100 μg of FZI/1 (SEQ ID NO:29), 1.0 μg of 6×His-ZOT (obtained as described in Example 1 of U.S. patent application Ser. No. 09/127,815, filed Aug. 3, 1998), 1.0 μg of zonulini (obtained as described in Example 3 of U.S. patent application Ser. No. 09/127,815, filed Aug. 3, 1998), or 1.0 μg of zonulinh (obtained as described in Example 3 of U.S. patent application Ser. No. 09/127,815, filed Aug. 3, 1998), alone; or pre-exposed for 20 min to 100 μg of FZI/O or FZI/1, at which time 1.0 μg of 6×His-ZOT, 1.0 μg of zonulini, or 1.0 μg of zonulinh was added. ΔRt was then calculated as Rt=PD/Isc where PD=potential difference and Isc=short circuit current.

BB/Wor rats = assay: Prevention of diabetes in BB/Wor rats, antagonist in drinking water; type: in vivo, rat; conditions: 10 μg/ml in drinking water, n=5
Experimental: Both groups were maintained on a standard diet of rat chow (Harlan Teklab Diet #7012). All food and water were previously autoclaved. Each day, daily water intake was measured and 100 ml of fresh water was given. The treated group received 10 μg/ml of the zonulin peptide antagonist (SEQ ID NO: 15) supplemented in the drinking water. The rats were housed in hepa-filter cages.
Diabetes in the rats was diagnosed as follows: The rats were weighed twice a week. Blood glucose was determined weekly using the OneTouch® glucose monitoring system (Johnson & Johnson). Each week, reagent strips for urinalysis were used to monitor glucose (Diastix®) and ketones (Ketositx®) (Bayer). Rats with a blood glucose >250 mg/dl were fasted overnight, and blood glucose levels >200 mg/dl were considered diabetic.
Following clinical presentation of diabetes, the rats were sacrificed as follows: the rats were anesthesized using ketamine anesthesia and a midline incision was made allowing access to the heart. An 18 G needle was placed into the heart and death occurred by exsanguinations. Then, zonulin assays were conducted as described above. […] According to Biomedical Research Models, Inc., 80% of diabetes prone rats present with diabetes by age 80 days.

BBDP rats = assay: Treatment of autoimmune diabetes in BBDP rats, therapy initiated after seroconversion; type: in vivo, rat
Experimental: A test group of 52-54 day old diabetes-prone rats were treated with a zonulin antagonist peptide AT1001 (SEQ ID NO:15) while an age matched control group was not treated. The antagonist was administered at this time because at 40 days these rats show an increase in zonulin levels and at 50 days autoimmune antibodies can be detected. Thus, treatment was started after […].
BBDP animals age 52-54 were days divided in two groups. Group 1 (n=20) received AT-1001 daily in drinking water+HCO3. Group 2 (n=10) received drinking water+HCO3. Animals were randomized to receive either placebo or treatment with the synthetic zonulin peptide inhibitor AT-1001 (SEQ ID:15) in their water supply in a blinded fashion during treatment arm T0. At the disease endpoint (fasting blood glucose>250 mg/dl), BBDP rats that developed T1D (60% incidence in placebo group, average age 110 days) were euthanized and blood and tissue samples collected. […] Serum zonulin and autoantibody levels were monitored at the beginning of the study and at its endpoint. Water intake was monitored daily, while weight gain and serum glucose levels were checked weekly. Rats with fasting blood glucose ≧250 mg/dl were considered diabetic and were sacrificed within 24 hours of reaching the diabetic status.

[1] = tested on: pancreatic islets of BBDP rats; assay: Histology and immunohistology of pancreata of BBDP rats; type: in vivo, rat; conditions: treated rats that did not develop T1D; listed as AT1001
Experimental: Samples of the pancreas were taken from animals that had been treated starting at day […] and examined. The results of the histological examination are shown in FIG. 9 and the results of the immunohistological examination are shown in FIG. 10.
To verify the identities of the cells observed in the histological analysis, immunohistological examination was conducted. Pancreata were sequentially stained with either anti-glucagon antibody, which is specific for glucon-producing […], or with anti-insulin antibodies, which is specific for insulin-producing β-cells. When untreated pancreas is stained with anti-insulin antibodies, no signal is detected. This is consistent with the destruction of β-cells in T1D. Staining of these cells with anti-glucagon antibodies identifies glucagon producing […]. Normal islets have a loaf-shaped structure with the outside of the islet containing […] and the inside of the islet containing β-cells. […] The structure of the islets was more normal as indicated by the staining pattern with anti-glucagon antibodies FIG. 10D.

Row | Substance | inhibitory effect on the Rt change induced by ZOT, zonulini and zonulinh (rabbit ileum; pre-exposure for 20 min to 100 μg peptide) | rats that developed diabetes by age 80 days (BB/Wor rats) [%] | treated rats that did not develop diabetes (BB/Wor rats) [%] | change in Rt as compared to the negative control (rabbit ileum; 100 μg peptide alone) [%] | decrease of the effect of ZOT on Rt (rabbit ileum; pre-treatment for 20 min with 100 μg peptide, then 1.0 μg 6×His-ZOT) [%] | decrease of the effect of zonulinh on Rt (rabbit ileum; pre-treatment for 20 min with 100 μg peptide, then 1.0 μg zonulinh) [%] | decrease of the effect of zonulini on Rt (rabbit ileum; pre-treatment for 20 min with 100 μg peptide, then 1.0 μg zonulini) [%] | animals that developed diabetes under continued treatment (BBDP rats; continued treatment after 120 days, arm T1) | anti-glutamic acid decarboxylase (GAD) antibodies (BBDP rats; following treatment) | average age of onset of T1D (BBDP rats; treated group) [days] | animals that progressed to T1D (BBDP rats; treatment arm T0, in drinking water from age 52-54 days) [%] | rats that developed diabetes (BBDP rats; treatment arm T0, treated group n=20) | progression to T1D (BBDP rats; up to age 205 days (150 days post-treatment)) | animals that developed diabetes after treatment was withdrawn (fraction) (BBDP rats; withdrawal after 120 days) | onset of T1D after withdrawal of treatment (BBDP rats; withdrawal at age 120 days, arm T1) [%] | pancreas histology (haematoxylin and eosin) [1] | pancreatic islet immunohistology (insulin and glucagon staining) [1]
1 | FZI/1: second synthetic peptide: Gly in position 8, Val in position 12, Gln in position 13 changed to residues of zonulinb (Val, Gly, Arg) (VGVLGRPG; sythetic peptide) [reference compound] | completely ablated | – | – | – | – | – | – | – | – | – | – | – | – | – | – | – | –
2 | GGVLVQPG [FZI/O, synthetic octapeptide corresponding to amino acid residues 8-15 of human fetal zonulin] | – | 40 | 60 | 0.5 | 75 | 100 | 97 | none | significant reduction | 86.0 ± 10.3 | 35 | 7 of 20 | significantly reduced | ⅓ | 33 | evidence of the regeneration of β-cells was observed; also recorded: either normal islet histology or islet showing signs of recovery from insulitis; also recorded: perivascular inflammation without insulitis | preserved islets with detectable insulin-producing beta cells; also recorded: islets that were either undamaged (C and D) or showed signs of recovery from an insulitis insult
